Laboratory results as given in the supplement of paper PMC10307832.

What was measured:
Test in all cases: relative viability (nuclei count vs DMSO), 5 days (fraction); higher = more cells survive
DM3189 + Tozasertib = compound: C1CN(CCN1)C2=CC=C(C=C2)C3=CN4C(=C(C=N4)C5=CC=NC6=CC=CC=C56)N=C3 [DM3189] + Cc1cc(Nc2cc(N3CCN(C)CC3)nc(Sc3ccc(NC(=O)C4CC4)cc3)n2)n[nH]1 [Tozasertib] (partner 0.1 µM)
Summary of the method: (§1)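 Five library-drug doses in √10 steps were combined with a fixed anchor-drug dose, or a single drug was given alone, by pin tool to lung cancer cell lines in 1536-well plates the day after seeding. Nuclei were stained and counted after 5 days. Relative viability is the nuclei count in treated wells over that in vehicle wells, taken as the median of duplicate plates.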

DM3189 + Luminespib = compound: C1CN(CCN1)C2=CC=C(C=C2)C3=CN4C(=C(C=N4)C5=CC=NC6=CC=CC=C56)N=C3 [DM3189] + CCNC(=O)c1noc(-c2cc(C(C)C)c(O)cc2O)c1-c1ccc(CN2CCOCC2)cc1 [Luminespib] (partner 0.01 µM)
Summary of the method: as §1

DM3189 + Phenformin = compound: C1CN(CCN1)C2=CC=C(C=C2)C3=CN4C(=C(C=N4)C5=CC=NC6=CC=CC=C56)N=C3 [DM3189] + N=C(N)NC(=N)NCCc1ccccc1 [Phenformin] (partner 250 µM)
Summary of the method: as §1

DM3189 + OSI-027 = compound: C1CN(CCN1)C2=CC=C(C=C2)C3=CN4C(=C(C=N4)C5=CC=NC6=CC=CC=C56)N=C3 [DM3189] + COc1cccc2cc(-c3nc([C@H]4CC[C@H](C(=O)O)CC4)n4ncnc(N)c34)[nH]c12 [OSI-027] (partner 0.5 µM)
Summary of the method: as §1

DM3189 + Foretinib = compound: C1CN(CCN1)C2=CC=C(C=C2)C3=CN4C(=C(C=N4)C5=CC=NC6=CC=CC=C56)N=C3 [DM3189] + COc1cc2c(Oc3ccc(NC(=O)C4(C(=O)Nc5ccc(F)cc5)CC4)cc3F)ccnc2cc1OCCCN1CCOCC1 [Foretinib] (partner 0.25 µM)
Summary of the method: as §1

DM3189 + Dasatinib = compound: C1CN(CCN1)C2=CC=C(C=C2)C3=CN4C(=C(C=N4)C5=CC=NC6=CC=CC=C56)N=C3 [DM3189] + Cc1nc(Nc2ncc(C(=O)Nc3c(C)cccc3Cl)s2)cc(N2CCN(CCO)CC2)n1 [Dasatinib] (partner 0.075 µM)
Summary of the method: as §1

DM3189 = compound: C1CN(CCN1)C2=CC=C(C=C2)C3=CN4C(=C(C=N4)C5=CC=NC6=CC=CC=C56)N=C3 [DM3189]
Summary of the method: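 In 1536-well plates, lung cancer cell lines rested overnight at 37 °C before five library-drug doses (not always all listed), √10 apart, were pinned onto vehicle-anchored plates. Nuclei were counted with MetaXpress from 4× Hoechst images taken after 5 days without medium change. Viability compares treated-well with vehicle-well nuclei as a median over plates, and plates needed control CV below 25% plus at least one doubling to pass.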

DM3189 + Olaparib = compound: C1CN(CCN1)C2=CC=C(C=C2)C3=CN4C(=C(C=N4)C5=CC=NC6=CC=CC=C56)N=C3 [DM3189] + O=C(c1cc(Cc2n[nH]c(=O)c3ccccc23)ccc1F)N1CCN(C(=O)C2CC2)CC1 [Olaparib] (partner 8 µM)
Summary of the method: as §1

DM3189 + Decitabine = compound: C1CN(CCN1)C2=CC=C(C=C2)C3=CN4C(=C(C=N4)C5=CC=NC6=CC=CC=C56)N=C3 [DM3189] + Nc1ncn([C@H]2C[C@H](O)[C@@H](CO)O2)c(=O)n1 [Decitabine] (partner 2 µM)
Summary of the method: as §1

DM3189 + Pemetrexed = compound: C1CN(CCN1)C2=CC=C(C=C2)C3=CN4C(=C(C=N4)C5=CC=NC6=CC=CC=C56)N=C3 [DM3189] + Nc1nc2[nH]cc(CCc3ccc(C(=O)N[C@@H](CCC(=O)O)C(=O)O)cc3)c2c(=O)[nH]1 [Pemetrexed] (partner 0.2 µM)
Summary of the method: as §1

DM3189 + Palbociclib = compound: C1CN(CCN1)C2=CC=C(C=C2)C3=CN4C(=C(C=N4)C5=CC=NC6=CC=CC=C56)N=C3 [DM3189] + CC(=O)c1c(C)c2cnc(Nc3ccc(N4CCNCC4)cn3)nc2n(C2CCCC2)c1=O [Palbociclib] (partner 0.5 µM)
Summary of the method: as §1

DM3189 + Vorinostat = compound: C1CN(CCN1)C2=CC=C(C=C2)C3=CN4C(=C(C=N4)C5=CC=NC6=CC=CC=C56)N=C3 [DM3189] + O=C(CCCCCCC(=O)Nc1ccccc1)NO [Vorinostat] (partner 1 µM)
Summary of the method: as §1

DM3189 + AZD7762 = compound: C1CN(CCN1)C2=CC=C(C=C2)C3=CN4C(=C(C=N4)C5=CC=NC6=CC=CC=C56)N=C3 [DM3189] + NC(=O)Nc1cc(-c2cccc(F)c2)sc1C(=O)N[C@H]1CCCNC1 [AZD7762] (partner 0.2 µM)
Summary of the method: as §1

DM3189 + Trametinib = compound: C1CN(CCN1)C2=CC=C(C=C2)C3=CN4C(=C(C=N4)C5=CC=NC6=CC=CC=C56)N=C3 [DM3189] + CC(=O)Nc1cccc(-n2c(=O)n(C3CC3)c(=O)c3c(Nc4ccc(I)cc4F)n(C)c(=O)c(C)c32)c1 [Trametinib] (partner 0.02 µM)
Summary of the method: as §1

NCI-H1623
relative viability (DM3189 + Tozasertib; first compound 0.08 µM): 0.406
relative viability (DM3189 + Tozasertib; first compound 0.253 µM): 0.426
relative viability (DM3189 + Tozasertib; first compound 0.8 µM): 0.408
relative viability (DM3189 + Tozasertib; first compound 2.53 µM): 0.377
relative viability (DM3189 + Luminespib; first compound 0.08 µM): 0.482
relative viability (DM3189 + Luminespib; first compound 0.253 µM): 0.494
relative viability (DM3189 + Luminespib; first compound 0.8 µM): 0.313
relative viability (DM3189 + Luminespib; first compound 2.53 µM): 0.537
relative viability (DM3189 + Phenformin; first compound 0.08 µM): 0.61
relative viability (DM3189 + Phenformin; first compound 0.253 µM): 0.528
relative viability (DM3189 + Phenformin; first compound 0.8 µM): 0.46
relative viability (DM3189 + Phenformin; first compound 2.53 µM): 0.545
relative viability (DM3189 + OSI-027; first compound 0.08 µM): 0.517
relative viability (DM3189 + OSI-027; first compound 0.253 µM): 0.43
relative viability (DM3189 + OSI-027; first compound 0.8 µM): 0.34
relative viability (DM3189 + OSI-027; first compound 2.53 µM): 0.369
relative viability (DM3189 + Foretinib; first compound 0.08 µM): 0.939
relative viability (DM3189 + Foretinib; first compound 0.253 µM): 0.901
relative viability (DM3189 + Foretinib; first compound 0.8 µM): 0.83
relative viability (DM3189 + Foretinib; first compound 2.53 µM): 0.818
relative viability (DM3189 + Dasatinib; first compound 0.08 µM): 0.588
relative viability (DM3189 + Dasatinib; first compound 0.253 µM): 0.611
relative viability (DM3189 + Dasatinib; first compound 0.8 µM): 0.456
relative viability (DM3189 + Dasatinib; first compound 2.53 µM): 0.527
relative viability (DM3189; 0.08 µM): 1.05
relative viability (DM3189; 0.253 µM): 0.874
relative viability (DM3189; 0.8 µM): 0.92
relative viability (DM3189; 2.53 µM): 0.979

NCI-H1648
relative viability (DM3189 + Tozasertib; first compound 0.253 µM): 0.565
relative viability (DM3189 + Tozasertib; first compound 0.8 µM): 0.39
relative viability (DM3189 + Tozasertib; first compound 2.53 µM): 0.464
relative viability (DM3189 + Olaparib; first compound 0.08 µM): 1.16
relative viability (DM3189 + Olaparib; first compound 0.253 µM): 0.881
relative viability (DM3189 + Olaparib; first compound 0.8 µM): 0.749
relative viability (DM3189 + Olaparib; first compound 2.53 µM): 0.862
relative viability (DM3189 + Decitabine; first compound 0.08 µM): 0.631
relative viability (DM3189 + Decitabine; first compound 0.253 µM): 0.53
relative viability (DM3189 + Decitabine; first compound 0.8 µM): 0.462
relative viability (DM3189 + Decitabine; first compound 2.53 µM): 0.438
relative viability (DM3189 + Pemetrexed; first compound 0.08 µM): 0.893
relative viability (DM3189 + Pemetrexed; first compound 0.253 µM): 0.615
relative viability (DM3189 + Pemetrexed; first compound 0.8 µM): 0.596
relative viability (DM3189 + Pemetrexed; first compound 2.53 µM): 0.577
relative viability (DM3189 + Palbociclib; first compound 0.08 µM): 0.274
relative viability (DM3189 + Palbociclib; first compound 0.253 µM): 0.226
relative viability (DM3189 + Palbociclib; first compound 0.8 µM): 0.271
relative viability (DM3189 + Palbociclib; first compound 2.53 µM): 0.364
relative viability (DM3189 + OSI-027; first compound 0.253 µM): 0.272
relative viability (DM3189 + OSI-027; first compound 0.8 µM): 0.227
relative viability (DM3189 + OSI-027; first compound 2.53 µM): 0.28
relative viability (DM3189 + Vorinostat; first compound 0.08 µM): 0.453
relative viability (DM3189 + Vorinostat; first compound 0.253 µM): 0.637
relative viability (DM3189 + Vorinostat; first compound 0.8 µM): 0.421
relative viability (DM3189 + Vorinostat; first compound 2.53 µM): 0.391
relative viability (DM3189 + AZD7762; first compound 0.08 µM): 0.681
relative viability (DM3189 + AZD7762; first compound 0.253 µM): 0.592
relative viability (DM3189 + AZD7762; first compound 0.8 µM): 0.562
relative viability (DM3189 + AZD7762; first compound 2.53 µM): 0.576
relative viability (DM3189 + Trametinib; first compound 0.08 µM): 0.434
relative viability (DM3189 + Trametinib; first compound 0.253 µM): 0.51
relative viability (DM3189 + Trametinib; first compound 0.8 µM): 0.61
relative viability (DM3189 + Trametinib; first compound 2.53 µM): 0.671
relative viability (DM3189; 0.08 µM): 0.798
relative viability (DM3189; 0.253 µM): 0.947
relative viability (DM3189; 0.8 µM): 0.962
relative viability (DM3189; 2.53 µM): 0.661
